Source: doi:10.1101/2023.02.27.530254, “Large library docking for cannabinoid-1 receptor agonists with reduced side effects” (bioRxiv, 2024)
pEC50, pKi: −log10 of the molar value. Where “and” joins values, the source holds several entries; their conditions need not be identical. Equal values may be shown once.

Experiments:
C56BL/6 mice [1] = experiment: Acetone test of cold allodynia after SNI; format: in vivo, mouse; details: for effect on SNI-induced cold allodynia (number of paw withdrawals): acetone test
Method: Under isoflurane anesthesia, two of the three branches of the sciatic nerve were ligated and transected distally, leaving the sural nerve intact. Behavior was tested 7 to 14 days after injury.
Mice were placed on a wire mesh and thirty min after an i.p. injection of the compounds we applied a drop (50 μL) of acetone on the ventral aspect of the hindpaw, 5 times every 30 sec. We recorded the number of nocifensive behaviors (paw lifts/licks/shakes/bites) over the 5 applications.

C56BL/6 mice [2] = experiment: Acute thermal pain tests (tail flick, hot plate, Hargreaves); format: in vivo, mouse; details: for tail flick latency of co-injection with morphine (3.0 mg/kg, i.p.) versus morphine alone: 0.05 and 0.1 mg/kg; for analgesic effect under CB1R knockout or AM251 (5.0 mg/kg) pre-treatment: tail flick assay; for lowest dose with significant analgesia (latencies above baseline): tail flick, hot plate and Hargreaves tests, i.p.
CB1 = molecular target: T1, CB1 (Rattus norvegicus, UniProt P20272); experiment: Radioligand competition binding with [3H]-CP-55,940, rat brain membranes; details: for Emax: maximal radioligand displacement, read-out: rCB1 binding Emax [SEM]; for pKi: [3H]-CP-55,940 competition, rat brain membranes; for LE: ligand efficiency; for LLE: lipophilic ligand efficiency
T1 construct: membrane preparations from rat brain (source of CB1); tissue Bioivt RAT00BRAINMZN; host or cells: rat brain
Method: The results were analyzed using nonlinear regression to determine the IC50 and Ki values for each ligand (Prism by GraphPad Software, Inc., San Diego, CA). The Ki values are expressed as the mean of two to three experiments each performed in triplicate.

C56BL/6 mice [3] = experiment: Open field test of hypolocomotion; format: in vivo, mouse; details: for motor effect versus vehicle at analgesic doses: open field and rotarod tests
Method: Thirty minutes after i.p. injection, mice were placed in the center of a round open-field (2 feet diameter) and their exploratory behavior recorded over the next 15 minutes. Distance traveled was used to represent open field behavior.

C56BL/6 mice [4] = experiment: Catalepsy test (vertical wire mesh); format: in vivo, mouse; details: for cataleptic behavior: analgesic doses (0.2 or 0.5 mg/kg), 30 minutes or 1-hour post-injection; for concentration window between anti-allodynia or analgesia versus catalepsy and sedation, maximum: depending on the nociceptive behavior
Method: Thirty and 60 minutes after an i.p. injection of the compounds, mice were placed on a vertical wire mesh and the latency to move all four paws was recorded.

hCB1 [5] = molecular target: T2, hCB1 (Homo sapiens, UniProt P21554); experiment: Lance Ultra cAMP accumulation assay (inhibition of forskolin-stimulated cAMP), CHO cells; format: cell-based; parameters: expressed in transfected cells; details: for Emax: CHO, read-out: hCB1 Lance Ultra cAMP Emax [95% CI]
Method: The inhibition of forskolin-stimulated cAMP accumulation assays was carried out using PerkinElmer’s Lance Ultra cAMP kit following the manufacturer’s protocol. In brief, CHO cells stably expressing human CB1R were harvested by incubation with Versene (ThermoFisher Scientific, Waltham, MA) for 10 min, washed once with Hank’s Balanced Salt Solution, and resuspended in stimulation buffer at ~200 cells/μL density. The ligands at eight different concentrations (0.001–10,000 nM) in stimulation buffer (5 μL) containing forskolin (2 μM final concentration) were added to a 384-well plate followed by the cell suspension (5 μL; ~1000 cells/well). The plate was incubated for 30 min at room temperature. Eu-cAMP tracer (5 μL) and Ulight-anti-cAMP (5 μL) working solutions were then added to each well, and the plate was incubated at room temperature for an additional 60 min. Results were measured on a Perkin-Elmer EnVision plate reader. The EC50 values were determined by nonlinear regression analysis using Prism software (GraphPad Software, Inc., San Diego, CA) and are expressed as the mean of three experiments, each performed in triplicate.

C56BL/6 mice [6] = experiment: Body temperature by telemetric probe; format: in vivo, mouse; details: body temperature over 150 minutes
Method: Body temperature (BT) was measured using a telemetric probe device (HD-X10; Data Science International). Briefly, under anesthesia, the probe device was placed in the mouse abdomen and a subcutaneous tunnel was created from the neck to the abdominal skin, through which a catheter (connected to the probe) was pulled and then inserted into the left carotid artery. Three weeks later, the implanted mice were singly housed in a cage that was placed on top of the DSI receiver (for probe signal detection). […] Data were acquired using the Ponemah Telemetry acquisition software (DSI) and percent changes were presented relative to each mouse’s baseline.

hCB2 [7] = molecular target: T3, hCB2 (Homo sapiens, UniProt P34972); experiment: TRUPATH BRET2 GoA dissociation assay, HEK293T; format: cell-based; parameters: expressed in transfected cells; host or cells: HEK293T (transient); details: HEK-293T, read-out: hCB2 BRET2 + GoA Emax [95% CI]
Method: […]. GoA dissociation BRET2 assays were performed as previously described with minor modifications. In brief, HEK293T cells were co-transfected overnight with human CB2 receptor, GαoA-Rluc, Gβ3, and Gγ9-GFP2 constructs. After 18–24 hours, the transfected cells were seeded into poly-L-lysine-coated 384-well white clear-bottom cell culture plates at a density of 15,000–20,000 cells and incubated with DMEM containing 1% dialyzed FBS, 100 U mL−1 of penicillin and 100 μg ml−1 of streptomycin for another 24 hours. The next day, the medium was aspirated and washed once with 20 μL of assay buffer (1× HBSS, 20 mM HEPES, 0.1% BSA, pH 7.4). Then, 20 μL of drug buffer containing coelenterazine 400a (Nanolight Technology) at 5 μM final concentration was added to each well and incubated for 5 minutes, followed by the addition of 10 μL of 3X designated drug buffer for 5 minutes. Then, 10 μL of 4X final concentrations of ligands were added for 5 minutes. […] BRET ratio was computed as the ratio of the GFP2 emission to RLuc8 emission. […] Each experiment was performed in triplicate and functional IC50 values were determined from the mean of four independent experiments.

hCB2 [8] = molecular target: T3, hCB2; experiment: Tango β-arrestin-2 recruitment assay, HTLA cells; format: cell-based; parameters: expressed in transfected cells; host or cells: HTLA (transient); details: for Emax: HTLA, read-out: hCB2 Tango ß-arrestin recruitment Emax [95% CI]
Method: (§1) The Tango β-arrestin-2 recruitment assays were performed as described. In brief, HTLA cells were transiently transfected with human CB1R or CB2R Tango DNA construct overnight in DMEM supplemented with 10 % FBS, 100 μg ml−1 streptomycin and 100 U ml−1 penicillin. The transfected cells were then plated into poly-L-lysine-coated 384-well white clear-bottom cell culture plates in DMEM containing 1% dialysed FBS at a density of 10,000–15,000 cells per well. After incubation for 6 h, the plates were added with drug solutions prepared in DMEM containing 1% dialysed FBS for overnight incubation. On the day of assay, medium and drug solutions were removed and 20 μl per well of BrightGlo reagent (Promega) was added. The plates were further incubated for 20 min at room temperature and counted using the Wallac TriLux Microbeta counter (PerkinElmer). The results were analysed using GraphPad Prism 9.1. Each experiment was performed in triplicate and functional […] values were determined from the mean of three independent experiments.

hCB1 [9] = molecular target: T2, hCB1; experiment: Tango β-arrestin-2 recruitment assay, HTLA cells; format: cell-based; parameters: expressed in transfected cells; details: for Emax: HTLA, read-out: hCB1 Tango ß-arrestin recruitment Emax [95% CI]
Method: as §1

T2 sequence (P21554 whole entry): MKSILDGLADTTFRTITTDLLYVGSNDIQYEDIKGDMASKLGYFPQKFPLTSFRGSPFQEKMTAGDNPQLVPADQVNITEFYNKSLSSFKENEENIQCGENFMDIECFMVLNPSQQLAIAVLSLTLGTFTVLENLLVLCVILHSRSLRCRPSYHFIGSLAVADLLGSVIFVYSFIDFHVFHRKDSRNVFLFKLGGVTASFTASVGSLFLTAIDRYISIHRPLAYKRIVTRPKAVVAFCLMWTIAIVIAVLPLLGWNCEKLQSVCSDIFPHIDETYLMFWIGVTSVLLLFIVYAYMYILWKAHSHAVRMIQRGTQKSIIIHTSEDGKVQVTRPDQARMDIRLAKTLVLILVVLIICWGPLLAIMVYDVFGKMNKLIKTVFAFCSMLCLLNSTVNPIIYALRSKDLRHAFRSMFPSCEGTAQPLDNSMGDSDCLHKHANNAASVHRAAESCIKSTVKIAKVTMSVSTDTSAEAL
T3 sequence (P34972 whole entry): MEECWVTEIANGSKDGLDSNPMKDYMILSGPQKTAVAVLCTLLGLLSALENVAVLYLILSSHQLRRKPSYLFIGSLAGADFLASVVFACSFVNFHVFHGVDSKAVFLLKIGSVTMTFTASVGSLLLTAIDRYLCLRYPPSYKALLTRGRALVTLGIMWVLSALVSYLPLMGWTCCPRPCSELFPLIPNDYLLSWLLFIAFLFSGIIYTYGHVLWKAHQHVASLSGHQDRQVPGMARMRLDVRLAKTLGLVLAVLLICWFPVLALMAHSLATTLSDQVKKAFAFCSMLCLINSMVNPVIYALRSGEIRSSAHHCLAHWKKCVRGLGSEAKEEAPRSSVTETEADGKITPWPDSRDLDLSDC
T1 sequence (P20272 whole entry): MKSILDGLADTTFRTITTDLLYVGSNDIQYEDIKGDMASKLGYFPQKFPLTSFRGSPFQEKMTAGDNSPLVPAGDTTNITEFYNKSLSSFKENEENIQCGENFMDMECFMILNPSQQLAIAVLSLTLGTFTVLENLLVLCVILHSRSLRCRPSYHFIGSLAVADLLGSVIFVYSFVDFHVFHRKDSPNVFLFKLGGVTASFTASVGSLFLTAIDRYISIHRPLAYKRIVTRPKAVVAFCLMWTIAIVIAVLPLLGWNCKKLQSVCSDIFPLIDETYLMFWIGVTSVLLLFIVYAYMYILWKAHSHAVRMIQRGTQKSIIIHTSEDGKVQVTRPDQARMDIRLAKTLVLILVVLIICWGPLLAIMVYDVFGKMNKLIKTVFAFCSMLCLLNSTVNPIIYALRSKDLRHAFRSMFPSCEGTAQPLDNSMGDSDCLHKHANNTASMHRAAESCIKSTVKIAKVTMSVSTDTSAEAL

Row | SMILES | effect on SNI-induced cold allodynia (number of paw withdrawals) (C56BL/6 mice [1]) | tail flick latency of co-injection with morphine (3.0 mg/kg, i.p.) versus morphine alone (C56BL/6 mice [2]) | analgesic effect under CB1R knockout or AM251 (5.0 mg/kg) pre-treatment (C56BL/6 mice [2]) | lowest dose with significant analgesia (latencies above baseline) (C56BL/6 mice [2]) [mg/kg] | Emax (CB1) [%] | pKi (CB1; rCB1 binding Ki [95% CI]) | pKi (CB1; rCB1 binding pKi [95% CI]) | cataleptic behavior (C56BL/6 mice [4]) | concentration window between anti-allodynia or analgesia versus catalepsy and sedation, maximum (C56BL/6 mice [4]) | concentration window between anti-allodynia or analgesia versus catalepsy and sedation, typical (C56BL/6 mice [4]; mouse, in vivo) | dose at which catalepsy was recorded (C56BL/6 mice [4]; mouse, in vivo) | pEC50 (hCB1 [5]) | Emax (hCB1 [5]) [%] | hypothermia compared to baseline and vehicle (C56BL/6 mice [6]) | Emax (hCB2 [7]) [%] | pEC50 (hCB2 [8]) | Emax (hCB2 [8]) [%] | LE (CB1) | LLE (CB1) | Emax (hCB1 [9]) [%] | further results
1 | COC(=O)[C@@](C)(NC(=O)c1cc(C)n(-c2cccc(C(F)(F)F)c2)n1)c1cccs1 [‘1350] | strongly reduced | significantly longer tail flick latencies | completely blocked | 0.1 | 106 | 9.02 | 9.00 | did not induce cataleptic behavior | up to a twenty-fold | five- to ten-fold | > 1.0 mg/kg and 1 mg/kg | 8.80 | 77 | induced hypothermia |  |  |  |  |  |  | dose with significant anti-allodynia (C56BL/6 mice [1]; acetone test for cold pain): 0.05 mg/kg; dose showing locomotor deficits (C56BL/6 mice [3]; open field test): 0.2 mg/kg; window between anti-allodynia and catalepsy (C56BL/6 mice [4]; tail-flick and hot-plate, 0.1 mg/kg vs 1 mg/kg highest tested dose): at least a ten-fold; hCB1 Lance Ultra cAMP Emax [95% CI] (hCB1 [5]): 78%
2 | COC(=O)C(C)(NC(=O)c1cc(C)n(-c2cccc(C(F)(F)F)c2)n1)c1cccs1 (stereo not shown) [‘4042] | strongly reduced | significantly longer tail flick latencies | completely blocked | 0.1 | 99 | 8.72 and 8.73 |  | did not induce cataleptic behavior | up to a twenty-fold | five- to ten-fold | > 1.0 mg/kg | 8.48 | 78 | induced hypothermia | 29 | 7.47 | 28 | 0.41 | 4.6 | 102 | decrease of analgesic effects by CB2R knockout or SR-144528 (1.0 mg/kg) (C56BL/6 mice [2]; tail flick or Hargreaves assays): neither; pEC50 (hCB1 [9]): 7.97; motor effect versus vehicle at analgesic doses (C56BL/6 mice [3]): no significant differences; window between analgesia and both sedation and catalepsy (C56BL/6 mice [4]; typical): 5–10 fold
3 | CCCCCCC(C)(C)c1ccc([C@@H]2C[C@H](O)CC[C@H]2CCCO)c(O)c1 [CP-55,940, reference compound] | strongly reduced |  |  |  |  |  |  |  |  |  |  |  | 85 | induced hypothermia | 99 |  | 100 |  |  | 100 | dose with increased latencies (C56BL/6 mice [2]; Hargreaves test): 0.2 mg/kg; dose with increased latencies (C56BL/6 mice [2]; tail flick test): 0.5 mg/kg; motor effect versus vehicle at analgesic doses (C56BL/6 mice [3]): caused motor impairment in both the rotarod and open field tests; dose at which catalepsy was recorded (C56BL/6 mice [4]; C56BL/6, mouse, in vivo, intraperitoneal): 0.2 mg/kg; window between analgesia and catalepsy (C56BL/6 mice [4]; mouse, in vivo): no window
4 | COC(=O)C(NC(=O)c1cc(C)n(-c2cccc(C(F)(F)F)c2)n1)c1cccs1 (stereo not shown) [‘60154] |  |  |  |  | 110 | 7.35 | 7.40 |  |  |  |  | 6.50 | 67 |  | 31 | 5.48 | 21 | 0.36 | 3.5 | 39 | pEC50 (hCB1 [9]): 6.10
